The text below walks through data of article PMC6009894, “Molecular modelling insights into a physiologically favourable approach to eicosanoid biosynthesis inhibition through novel thieno[2,3-b]pyridine derivatives” (Journal of Enzyme Inhibition and Medicinal Chemistry, 2018).

Data set [1] relates to carrageenan-induced rat paw oedema. The data set can be described thus: carrageenan-induced rat paw oedema assay. The class given is in vivo, Sprague–Dawley rats. The following applies: for Inhibition of acute inflammation % inh / Swel (mean difference in rat paw volume between right and left paw): dose equivalent to 70 mg kg-1 ibuprofen; for Swel (mean difference in rat paw volume between right and left paw): DMSO. As to the method:
According to a priori test results, experiments were conducted on young adult male Sprague–Dawley rats (5 rats per group), weighing 140–170 g. The animals were housed at cages in a temperature controlled (25 ± 1 °C) environment and were fed ad libitum with standard laboratory chow and allowed free access to water. […] The animal protocol is in accordance with the Animal Ethical Care regulations in the Faculty of Pharmacy, Helwan University.
Compounds (equimolar to the reference drug) were dissolved in DMSO and administrated subcutaneously. One hour later, paw oedema was induced by subplantar injection of 0.1 ml of 1% carrageenan (Sigma-Aldrich, St. Louis, MO) into the right hind paw. Paw volume was measured using a water plethysmometer (Basile, Comerio, Italy). The difference between the right and left paw volume was measured at 1, 2, 3, and 4 h after induction of inflammation.
The control group (five rats per group) received DMSO subcutaneously and carrageenan in the subplantar region. Results were expressed as percentage inhibition of inflammation.

Where “and” joins values, the source holds several entries; their conditions need not be identical. Equal values may be shown once.

In the case of `CC1=CC(C)=C(C#N)C2SC(=Cc3ccccc3)C(=O)N12` (racemic) [Compound 2a], the melting point fell in the range of 105 to 107 °C. For the same compound, the “Inhibition of acute inflammation % inh” value in data set [1] (1 h) turned out to be 0%. The “Swel (mean difference in rat paw volume between right and left paw)” value in data set [1] (1 h after carrageenan) is 0.457. Further, in data set [1] (2 h), the “Inhibition of acute inflammation % inh” value is 0%. Further, the “Swel (mean difference in rat paw volume between right and left paw)” value in data set [1] (2 h after carrageenan) came out at 0.595. Besides, the “Inhibition of acute inflammation % inh” value in data set [1] (3 h) came out at 16.605%. Further, the “Swel (mean difference in rat paw volume between right and left paw)” value in data set [1] (3 h after carrageenan) was found to be 0.453. In addition, in data set [1] (4 h), the “Inhibition of acute inflammation % inh” value was found to be 21.95%. For the same compound, the “Swel (mean difference in rat paw volume between right and left paw)” value in data set [1] (4 h after carrageenan) amounted to 0.491.

Compound `CC1=CC(C)=C(C#N)C2SCN(c3ccccc3)CN12` (racemic) [Compound 4a, (±)3-Aryl-2,3,4,9a-tetrahydro-6,8-dimethylpyrido[2,1-b][1,3,5]thiadiazine-9-carbonitrile] came in with a melting point of 180 to 182 °C. For the same compound, the “Inhibition of acute inflammation % inh” value in data set [1] (1 h) is 0%. In addition, the “Swel (mean difference in rat paw volume between right and left paw)” value in data set [1] (1 h after carrageenan) is 0.394. The “Inhibition of acute inflammation % inh” value in data set [1] (2 h) is listed as 0%. Besides, the “Swel (mean difference in rat paw volume between right and left paw)” value in data set [1] (2 h after carrageenan) is 0.407. In addition, the “Inhibition of acute inflammation % inh” value in data set [1] (3 h) came out at 38.174%. In addition, the “Swel (mean difference in rat paw volume between right and left paw)” value in data set [1] (3 h after carrageenan) turned out to be 0.336. Further, in data set [1] (4 h), the “Inhibition of acute inflammation % inh” value came to 43.38%. In data set [1] (4 h after carrageenan), the “Swel (mean difference in rat paw volume between right and left paw)” value is listed as 0.356.

As to `CC1=CC(C)=C(C#N)C2SCN(Cc3ccccc3)CN12` (racemic) [Compound 4c], the melting point was in the range of 125 to 127 °C. In data set [1] (1 h), the “Inhibition of acute inflammation % inh” value was 0%. In addition, the “Swel (mean difference in rat paw volume between right and left paw)” value in data set [1] (1 h after carrageenan) amounted to 0.45. Moreover, the “Inhibition of acute inflammation % inh” value in data set [1] (2 h) is 4.78%. Also, in data set [1] (2 h after carrageenan), the “Swel (mean difference in rat paw volume between right and left paw)” value amounted to 0.22. The “Inhibition of acute inflammation % inh” value in data set [1] (3 h) came out at 7.39%. Further, the “Swel (mean difference in rat paw volume between right and left paw)” value in data set [1] (3 h after carrageenan) is given as 0.213. For the same compound, in data set [1] (4 h), the “Inhibition of acute inflammation % inh” value was 35.08%. Further, the “Swel (mean difference in rat paw volume between right and left paw)” value in data set [1] (4 h after carrageenan) stood at 0.409.

In the case of `Cc1cc(C)c(C#N)c(=S)[nH]1` [Compound 1, 1,2-Dihydro-4,6-dimethyl-2-thioxopyridine-3-carbonitrile], the “Inhibition of acute inflammation % inh” value came out at 0% in data set [1] (1 h), 0% in data set [1] (2 h), 38.725% in data set [1] (3 h) and 43.91% in data set [1] (4 h). Moreover, the “Swel (mean difference in rat paw volume between right and left paw)” value in data set [1] (1 h after carrageenan) was determined as 0.503; in data set [1] (2 h after carrageenan), 0.353; in data set [1] (3 h after carrageenan), 0.33; in data set [1] (4 h after carrageenan), 0.353.

Regarding `CSc1nc(C)cc(C)c1C#N` [Compound 3a, S-Methyl-4,6-dimethyl-2-thiopyridine-3-carbonitrile], the “Inhibition of acute inflammation % inh” value in data set [1] (1 h) stood at 0%; in data set [1] (2 h) it was 0%; in data set [1] (3 h), 12.438%; in data set [1] (4 h) it was 43.7%. Also, the “Swel (mean difference in rat paw volume between right and left paw)” value in data set [1] (1 h after carrageenan) was determined as 0.382; in data set [1] (2 h after carrageenan), 0.363; in data set [1] (3 h after carrageenan), 0.476; in data set [1] (4 h after carrageenan), 0.354.

As for `CCOC(=O)CSc1nc(C)cc(C)c1C#N` [Compound 3b, ethyl 2-(3-cyano-4,6-dimethylpyridin-2-ylthio)acetate], the melting point was 93 °C.

Take `CCOC(=O)c1sc2nc(C)cc(C)c2c1N` [Compound 5, Ethyl-3-amino-4,6-dimethylthieno[2,3-b]pyridine-2-carboxylate]: the “Inhibition of acute inflammation % inh” value in data set [1] (1 h) amounted to 0%; in data set [1] (2 h), 0%; in data set [1] (3 h), 28.921%; in data set [1] (4 h), 46.03%. Also, the “Swel (mean difference in rat paw volume between right and left paw)” value is listed as 0.393 in data set [1] (1 h after carrageenan), 0.46 in data set [1] (2 h after carrageenan), 0.386 in data set [1] (3 h after carrageenan) and 0.34 in data set [1] (4 h after carrageenan).

Take `Cc1cc(C)c2c(N)c(C(=O)NN)sc2n1` [Compound 6, 3-Amino-4,6-dimethylthieno[2,3-b]pyridine-2-carbazide]: the “Inhibition of acute inflammation % inh” value in data set [1] (1 h) turned out to be 0%; in data set [1] (2 h) it was 0%; in data set [1] (3 h), 38.84%; in data set [1] (4 h), 58.67%. Also, the “Swel (mean difference in rat paw volume between right and left paw)” value is 0.410 in data set [1] (1 h after carrageenan), 0.486 in data set [1] (2 h after carrageenan), 0.332 in data set [1] (3 h after carrageenan) and 0.26 in data set [1] (4 h after carrageenan).

As for `COc1ccc(C=NNC(=O)c2sc3nc(C)cc(C)c3c2N)cc1` [Compound 7c, 3-Amino-4,6-dimethyl-thieno [2,3-b] pyridine-2-carboxylic acid (4-methoxy-benzylidene)-hyrazide], the “Inhibition of acute inflammation % inh” value in data set [1] (1 h) was determined as 11.59%; in data set [1] (2 h) it was 25.64%; in data set [1] (3 h), 58.3%; in data set [1] (4 h), 63.49%. The “Swel (mean difference in rat paw volume between right and left paw)” value in data set [1] (1 h after carrageenan) turned out to be 0.203; in data set [1] (2 h after carrageenan), 0.193; in data set [1] (3 h after carrageenan) it was 0.226; in data set [1] (4 h after carrageenan) it was 0.23.

Turning to `Cc1cc(C)c2c(n1)sc1c(=O)n(N=Cc3ccccc3)nnc12` [Compound 8a, 7,9-Dimethyl-3-[(phenylmethylene)amino]pyrido[3′,2′:4,5]thieno[3,2-d][1,2,3]triazin-4(3H)-one], the melting point is 300 to 302 °C. Besides, the “Inhibition of acute inflammation % inh” value in data set [1] (1 h) amounted to 0%. The “Swel (mean difference in rat paw volume between right and left paw)” value in data set [1] (1 h after carrageenan) is listed as 0.256. Also, in data set [1] (2 h), the “Inhibition of acute inflammation % inh” value is recorded as 14.1%. Besides, the “Swel (mean difference in rat paw volume between right and left paw)” value in data set [1] (2 h after carrageenan) was 0.223. For the same compound, the “Inhibition of acute inflammation % inh” value in data set [1] (3 h) was determined as 30.75%. Further, the “Swel (mean difference in rat paw volume between right and left paw)” value in data set [1] (3 h after carrageenan) turned out to be 0.376. In data set [1] (4 h), the “Inhibition of acute inflammation % inh” value is 53.96%. Also, the “Swel (mean difference in rat paw volume between right and left paw)” value in data set [1] (4 h after carrageenan) is listed as 0.29.

As for `Cc1cc(C)c2c(N)c(-n3nc(C)cc3C=C=O)sc2n1` [Compound 9b, 3-Amino-2-[carbonyl (3,5-dimethyl-pyrazol-1-yl)]-4,6-dimethylthieno[2,3-b] pyridine], the melting point is 150 to 152 °C.

`CC(=O)N(C(C)=O)n1c(C)nc2c(sc3nc(C)cc(C)c32)c1=O` [Compound 10b, 3-Diacetylamino-2,7,9-trimethylpyrido [3',2':4,5]thieno[3,2-d]pyrimidin-4(3H)-one] returned a melting point of 133 to 135 °C.

In the case of `CC(C)Cc1ccc(C(C)C(=O)O)cc1` (stereo not drawn) [Ibuprofen, reference compound], the “Inhibition of acute inflammation % inh” value is given as 6.08% in data set [1] (1 h), 45% in data set [1] (2 h), 60.66% in data set [1] (3 h) and 69.52% in data set [1] (4 h). Further, in data set [1] (rat paw oedema, 4 h time interval, subcutaneous, equimolar to ibuprofen 70 mg kg-1), the “inflammation reduction % (4h)” value is 69.5% and 69.52%.

The term melting point denotes the temperature, or range, at which the solid turns liquid.
